The source of these data is ChEMBL document CHEMBL2321687, “Identification of a novel arylpiperazine scaffold for fatty acid amide hydrolase inhibition with improved drug disposition properties” (Bioorg Med Chem Lett, 2013).

For orientation: inhibition means the drop in the measured response relative to a control, in per cent. In general, Ki refers to the equilibrium dissociation constant of an inhibitor or competing ligand from its target. Lower therefore signals a stronger hold on the target.

Experiment [1] deals with Melanocortin receptor 4 (Homo sapiens) (UniProt P32245). Kind of experiment: Displacement of [125I]NDP-a-MSH from human recombinant MC4 receptor expressed in CHO cells at 1 uM. The format is cell-based. For orientation: In a radioligand displacement assay an active substance lowers the binding of a labelled ligand.
The target in experiment [2] is Neuropeptide Y receptor type 2 (Homo sapiens) (UniProt P49146). Kind of experiment: Displacement of [125I]peptideYY from human Y2 receptor in KAN-TS cells. In kind it is cell-based. To be noted: concentration not given here.
The target of experiment [3] is Muscarinic acetylcholine receptor M1 (Homo sapiens) (UniProt P11229). Nature of the experiment: Displacement of [3H]pirenzepine from human recombinant muscarinic M1 receptor expressed in CHO cells at 1 uM. The format is cell-based.
Experiment [4] concerns the target Sodium-dependent dopamine transporter (Homo sapiens) (UniProt Q01959). Kind of experiment: Displacement of [3H]BTCP from human recombinant DA transporter expressed in CHO cells at 1 uM. The format is cell-based.
The species entered for experiment [5] is Rattus norvegicus. Nature of the experiment: Displacement of [3H]flunitrazepam from rat central BZD receptor in cerebral cortex. The format is tissue-based. To be noted: concentration not given here.
Experiment [6] concerns the target T1, Fatty-acid amide hydrolase 1 (Mus musculus, UniProt O08914).
T1 sequence (O08914 whole entry): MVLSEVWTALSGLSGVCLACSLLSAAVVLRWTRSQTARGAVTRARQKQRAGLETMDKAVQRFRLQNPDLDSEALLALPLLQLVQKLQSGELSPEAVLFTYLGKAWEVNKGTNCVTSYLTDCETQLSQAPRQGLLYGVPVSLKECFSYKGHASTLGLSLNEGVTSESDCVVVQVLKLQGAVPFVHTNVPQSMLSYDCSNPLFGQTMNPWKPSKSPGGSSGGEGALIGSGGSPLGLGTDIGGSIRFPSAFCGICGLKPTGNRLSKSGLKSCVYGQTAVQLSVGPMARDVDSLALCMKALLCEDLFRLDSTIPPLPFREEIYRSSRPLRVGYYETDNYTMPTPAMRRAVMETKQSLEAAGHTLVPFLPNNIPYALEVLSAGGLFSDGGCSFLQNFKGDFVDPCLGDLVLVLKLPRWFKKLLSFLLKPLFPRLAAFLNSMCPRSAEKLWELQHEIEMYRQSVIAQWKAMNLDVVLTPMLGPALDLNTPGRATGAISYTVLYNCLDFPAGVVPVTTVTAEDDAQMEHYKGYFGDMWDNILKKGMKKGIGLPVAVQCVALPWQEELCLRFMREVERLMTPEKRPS
Nature of the experiment: Inhibition of FAAH in mouse brain homogenate using [3Hethanolamine]AEA as substrate incubated for 20 mins prior to substrate addition measured after 15 mins by beta counting analysis. The format is tissue-based.

Experiment [7] addresses Histamine H1 receptor (Homo sapiens) (UniProt P35367). Nature of the experiment: Displacement of [3H]pyrilamine from human recombinant H1 receptor expressed in HEK293 cells at 1 uM. In kind it is cell-based.
For experiment [8], the species on record is Rattus norvegicus. Nature of the experiment: Displacement of [3H]GABA from rat GABA in cerebral cortex. In kind it is tissue-based. To be noted: concentration not given here.
Experiment [9] has as its target B2 bradykinin receptor (Homo sapiens) (UniProt P30411). Kind of experiment: Displacement of [3H]bradykinin from human recombinant B2 receptor expressed in CHO cells at 1 uM. In kind it is cell-based.
For experiment [10], the target named is Adenosine receptor A3 (Homo sapiens) (UniProt P0DMS8). Nature of the experiment: Displacement of [3H]AB-MECA from human recombinant adenosine A3 receptor expressed in HEK293 cells at 1 uM. The format is cell-based.
In experiment [11] the target is Adrenergic receptor alpha-2 (Rattus norvegicus) (UniProt P22086+P19328+P22909). Kind of experiment: Displacement of [3H]RX821002 from rat alpha2 receptor in cerebral cortex. To be noted: concentration not given here. The format is tissue-based.
For experiment [12], the target named is Sodium-dependent serotonin transporter (Homo sapiens) (UniProt P31645). Kind of experiment: Displacement of [3H]imipramine from human recombinant 5-HT transporter expressed in CHO cells at 1 uM. In kind it is cell-based.
Experiment [13] deals with Somatostatin receptor (Mus musculus) (UniProt P30935+O08858+P30875+P30873+P49660). Nature of the experiment: Displacement of [125I]Tyr11-somatostatin-14 from mouse sst receptor in AtT20 cells. To be noted: concentration not given here. In kind it is cell-based.
The target in experiment [14] is Histamine H2 receptor (Homo sapiens) (UniProt P25021). Nature of the experiment: Displacement of [125I]APT from human recombinant H2 receptor expressed in CHO cells at 1 uM. The format is cell-based.
For experiment [15], the target named is Beta-2 adrenergic receptor (Homo sapiens) (UniProt P07550). Kind of experiment: Displacement of [3H](-)CGP12177 from human recombinant beta2 receptor expressed in CHO cells at 1 uM. The format is cell-based.
Sequence of Beta-2 adrenergic receptor (Homo sapiens) (P07550 whole entry, looked up): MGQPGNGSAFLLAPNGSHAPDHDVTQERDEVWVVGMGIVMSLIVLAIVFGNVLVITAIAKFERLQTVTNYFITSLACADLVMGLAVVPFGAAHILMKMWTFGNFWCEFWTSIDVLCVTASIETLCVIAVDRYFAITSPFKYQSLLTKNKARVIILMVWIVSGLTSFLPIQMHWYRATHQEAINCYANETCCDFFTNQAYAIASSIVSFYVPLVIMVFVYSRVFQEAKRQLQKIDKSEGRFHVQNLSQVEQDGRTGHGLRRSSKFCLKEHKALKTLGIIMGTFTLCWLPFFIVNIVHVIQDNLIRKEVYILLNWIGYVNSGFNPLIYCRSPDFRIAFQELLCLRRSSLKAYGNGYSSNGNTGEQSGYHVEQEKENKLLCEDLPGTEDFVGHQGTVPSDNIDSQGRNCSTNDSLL

Sequence of Neuropeptide Y receptor type 2 (Homo sapiens) (P49146 whole entry): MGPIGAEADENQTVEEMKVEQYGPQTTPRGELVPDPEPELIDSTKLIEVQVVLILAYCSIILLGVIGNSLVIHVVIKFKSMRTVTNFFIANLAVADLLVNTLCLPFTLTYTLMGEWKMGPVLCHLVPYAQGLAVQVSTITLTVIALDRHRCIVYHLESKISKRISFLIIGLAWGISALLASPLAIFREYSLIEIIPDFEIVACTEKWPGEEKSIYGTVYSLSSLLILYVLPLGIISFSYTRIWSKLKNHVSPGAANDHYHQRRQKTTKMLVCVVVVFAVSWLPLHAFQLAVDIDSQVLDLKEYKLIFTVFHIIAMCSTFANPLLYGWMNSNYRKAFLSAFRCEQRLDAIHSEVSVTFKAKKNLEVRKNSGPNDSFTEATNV
Sequence of Adenosine receptor A3 (Homo sapiens) (P0DMS8 whole entry): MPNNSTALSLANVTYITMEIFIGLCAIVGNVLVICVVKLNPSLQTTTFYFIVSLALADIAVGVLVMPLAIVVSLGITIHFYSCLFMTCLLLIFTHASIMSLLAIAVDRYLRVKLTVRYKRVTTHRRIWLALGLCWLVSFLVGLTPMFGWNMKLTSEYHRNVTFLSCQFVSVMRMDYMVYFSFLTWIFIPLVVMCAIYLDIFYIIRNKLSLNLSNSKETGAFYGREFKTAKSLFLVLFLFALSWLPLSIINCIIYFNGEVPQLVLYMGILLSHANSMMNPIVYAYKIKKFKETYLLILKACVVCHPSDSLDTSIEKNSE
Sequence of B2 bradykinin receptor (Homo sapiens) (P30411 whole entry): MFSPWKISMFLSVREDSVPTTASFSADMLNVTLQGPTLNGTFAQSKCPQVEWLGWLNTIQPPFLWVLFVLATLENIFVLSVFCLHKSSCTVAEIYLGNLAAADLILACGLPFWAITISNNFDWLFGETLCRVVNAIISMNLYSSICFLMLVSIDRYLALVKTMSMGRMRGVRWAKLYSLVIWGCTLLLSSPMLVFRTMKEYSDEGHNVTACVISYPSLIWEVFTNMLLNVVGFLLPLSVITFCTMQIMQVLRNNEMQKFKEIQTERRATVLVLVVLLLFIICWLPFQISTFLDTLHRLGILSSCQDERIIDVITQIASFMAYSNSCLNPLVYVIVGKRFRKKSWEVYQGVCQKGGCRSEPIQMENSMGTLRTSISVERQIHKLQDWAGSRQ
Sequence of Melanocortin receptor 4 (Homo sapiens) (P32245 whole entry): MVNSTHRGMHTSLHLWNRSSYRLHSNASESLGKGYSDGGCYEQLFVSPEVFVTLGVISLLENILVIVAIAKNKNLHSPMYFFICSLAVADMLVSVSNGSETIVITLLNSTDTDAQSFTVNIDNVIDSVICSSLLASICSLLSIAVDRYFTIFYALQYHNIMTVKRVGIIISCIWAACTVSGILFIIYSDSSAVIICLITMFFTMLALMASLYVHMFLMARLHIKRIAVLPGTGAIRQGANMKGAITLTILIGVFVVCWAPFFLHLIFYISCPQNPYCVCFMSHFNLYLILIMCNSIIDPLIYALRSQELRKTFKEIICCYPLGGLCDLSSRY
Sequence of Muscarinic acetylcholine receptor M1 (Homo sapiens) (P11229 whole entry): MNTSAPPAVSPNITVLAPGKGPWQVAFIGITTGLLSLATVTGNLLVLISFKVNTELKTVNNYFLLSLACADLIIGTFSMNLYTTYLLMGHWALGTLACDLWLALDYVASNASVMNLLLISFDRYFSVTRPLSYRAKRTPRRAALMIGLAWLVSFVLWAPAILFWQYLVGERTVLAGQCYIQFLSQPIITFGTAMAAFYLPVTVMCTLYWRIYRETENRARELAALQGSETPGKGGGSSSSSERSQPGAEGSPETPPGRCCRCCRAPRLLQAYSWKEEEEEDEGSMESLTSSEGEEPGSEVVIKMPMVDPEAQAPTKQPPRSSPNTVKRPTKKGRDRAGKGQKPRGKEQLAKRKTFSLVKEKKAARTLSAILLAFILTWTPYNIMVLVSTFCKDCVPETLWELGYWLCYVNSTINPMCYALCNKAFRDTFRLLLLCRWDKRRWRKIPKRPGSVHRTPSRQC
Sequence of Sodium-dependent serotonin transporter (Homo sapiens) (P31645 whole entry, looked up): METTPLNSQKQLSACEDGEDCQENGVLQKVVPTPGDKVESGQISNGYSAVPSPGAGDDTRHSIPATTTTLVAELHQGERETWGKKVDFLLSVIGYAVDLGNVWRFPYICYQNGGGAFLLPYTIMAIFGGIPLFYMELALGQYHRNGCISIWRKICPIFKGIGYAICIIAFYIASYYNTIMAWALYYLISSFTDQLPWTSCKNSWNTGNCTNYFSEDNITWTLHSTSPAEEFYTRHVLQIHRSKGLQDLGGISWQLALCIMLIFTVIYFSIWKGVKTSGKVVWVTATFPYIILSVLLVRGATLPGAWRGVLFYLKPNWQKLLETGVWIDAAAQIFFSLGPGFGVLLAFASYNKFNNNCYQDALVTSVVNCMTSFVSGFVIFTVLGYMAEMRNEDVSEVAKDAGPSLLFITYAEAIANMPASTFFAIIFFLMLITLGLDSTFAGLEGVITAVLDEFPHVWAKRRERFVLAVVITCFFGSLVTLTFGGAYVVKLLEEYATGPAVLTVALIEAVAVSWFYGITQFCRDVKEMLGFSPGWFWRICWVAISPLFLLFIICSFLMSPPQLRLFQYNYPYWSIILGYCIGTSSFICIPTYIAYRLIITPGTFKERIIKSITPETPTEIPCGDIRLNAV
Sequence of Histamine H1 receptor (Homo sapiens) (P35367 whole entry): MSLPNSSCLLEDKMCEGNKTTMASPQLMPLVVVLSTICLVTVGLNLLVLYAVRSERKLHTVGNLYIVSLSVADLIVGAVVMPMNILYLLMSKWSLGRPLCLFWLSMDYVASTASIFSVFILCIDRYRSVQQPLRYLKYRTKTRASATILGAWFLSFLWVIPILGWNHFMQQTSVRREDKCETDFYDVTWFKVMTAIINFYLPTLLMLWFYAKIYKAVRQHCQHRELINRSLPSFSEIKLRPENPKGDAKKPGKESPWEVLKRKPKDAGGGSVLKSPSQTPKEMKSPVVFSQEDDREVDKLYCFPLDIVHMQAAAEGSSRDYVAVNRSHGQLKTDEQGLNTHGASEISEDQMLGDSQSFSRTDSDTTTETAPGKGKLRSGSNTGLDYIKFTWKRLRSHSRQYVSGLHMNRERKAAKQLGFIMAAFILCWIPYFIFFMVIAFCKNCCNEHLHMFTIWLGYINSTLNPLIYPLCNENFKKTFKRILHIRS
Sequence of Histamine H2 receptor (Homo sapiens) (P25021 whole entry): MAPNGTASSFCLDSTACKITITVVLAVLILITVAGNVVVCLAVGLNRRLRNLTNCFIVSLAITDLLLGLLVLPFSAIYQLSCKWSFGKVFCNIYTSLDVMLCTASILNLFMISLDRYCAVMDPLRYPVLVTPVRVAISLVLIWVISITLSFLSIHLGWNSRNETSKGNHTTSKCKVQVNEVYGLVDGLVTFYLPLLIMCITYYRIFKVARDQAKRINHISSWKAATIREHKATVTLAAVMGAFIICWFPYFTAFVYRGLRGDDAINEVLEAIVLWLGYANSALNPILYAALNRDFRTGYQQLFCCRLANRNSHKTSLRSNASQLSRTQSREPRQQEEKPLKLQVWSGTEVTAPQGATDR
Sequence of Sodium-dependent dopamine transporter (Homo sapiens) (Q01959 whole entry): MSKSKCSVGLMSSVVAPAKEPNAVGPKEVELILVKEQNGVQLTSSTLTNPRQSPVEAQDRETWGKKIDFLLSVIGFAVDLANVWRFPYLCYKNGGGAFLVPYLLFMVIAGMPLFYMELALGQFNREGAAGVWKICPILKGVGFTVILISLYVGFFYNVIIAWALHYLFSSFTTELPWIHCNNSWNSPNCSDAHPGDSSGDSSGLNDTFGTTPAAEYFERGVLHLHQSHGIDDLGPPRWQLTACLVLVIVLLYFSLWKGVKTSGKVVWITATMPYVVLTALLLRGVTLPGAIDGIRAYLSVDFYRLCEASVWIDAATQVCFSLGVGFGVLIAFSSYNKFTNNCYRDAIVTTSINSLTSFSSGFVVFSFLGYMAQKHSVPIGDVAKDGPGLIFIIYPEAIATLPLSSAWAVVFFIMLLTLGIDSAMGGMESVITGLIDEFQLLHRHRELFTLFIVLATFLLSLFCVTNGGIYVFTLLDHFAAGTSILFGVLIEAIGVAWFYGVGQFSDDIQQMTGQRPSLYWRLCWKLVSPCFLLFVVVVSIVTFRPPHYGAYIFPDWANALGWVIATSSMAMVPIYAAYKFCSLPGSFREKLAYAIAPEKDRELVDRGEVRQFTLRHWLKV

With `CCCCCCCOc1ccc(NC(=O)Oc2cccc(N3CCNCC3)c2)cc1`, the inhibition in [1] is 3%; in experiment [2], -9%; in experiment [3], 28%; in experiment [4], 103%; in the experiment listed under Rattus norvegicus [5], 16%; in experiment [7], 22%. Besides, the inhibition in the experiment filed under Rattus norvegicus [8] was 0%; in experiment [9] it was -5%; in experiment [10], 4%; in [11], 52%; in [12] it was 36%; in experiment [13], -2%. Moreover, the inhibition was 27% in experiment [14] and 19% in [15]. In experiment [6], this compound registered a Ki greater than 0.5 µM.
